Earlier results, collected in US20190167598A1, “A NOVEL TREATMENT REGIMEN INVOLVING SAPROPTERIN DIHYDROCHLORIDE” (DIPHARMA S.A., priority 2016, published 2019).

What was measured:
[1] = in vivo
[2] = neutral or basic conditions

Compound: C[C@H](O)[C@H](O)[C@H]1CNc2[nH]c(N)nc(=O)c2N1.Cl.Cl [sapropterin, (6R)-2-amino-6-[(1R,2S)-1,2-dihydroxypropyl]-5,6,7,8-tetrahydropteridin-4(1H)-one dihydrochloride]
- sapropterin elimination half-life time [1]: about 4 h
- oxidation into dihydrobiopterin [2]: readily oxidized
